One experiment has as its target FHIT truncation TR1 (Homo sapiens, UniProt P49789). The experiment in a line: Cellular MST assay, GFP tagged FHIT truncation TR1. It is filed as binding. How it is done:
(§1) Ten million 293 cells overexpressing GFP-tagged FHIT or free GFP were lysed in 0.5 mL M-PER mammalian protein extraction reagent (Thermo Fisher Scientific). Cell lysates were diluted in PBS buffer to a final concentration at which the fluorescent signals of the GFP proteins were suitable for the detection of the Monolith NT.115 instrument (NanoTemper Technologies). A single point screening assay was developed against GFP-FHIT protein to find potential binding molecules from compound libraries (L1021,APExBIO). For binding affinity detection, a 10µL protein sample was mixed with 10µL ligand at various concentrations as indicated. And the purified proteins were labeled by Red- NHS kit in accordance with the manufacturer’s protocol (MO-L011, NanoTemper Technologies). Then the mixture solutions were loaded into NT.115 standard coated capillaries or premium coated capillaries (NanoTemper Technologies), and the MST measurements were performed at 25 °C. The fluorescence signal during the thermophoresis was monitored and the change in fluorescence was analyzed by software. The Kd was calculated by fitting a standard binding curve to the series diluted ligands. And data were analyzed by GraphPad Prism 7.0.

The target of a further experiment is FHIT truncation TR2 (Homo sapiens, UniProt P49789). The experiment in a line: Cellular MST assay, GFP tagged FHIT truncation TR2. Type of experiment: binding. How it is done:
as §1

The next experiment has as its target T1, FHIT truncation TR3 (Homo sapiens, UniProt P49789).
T1 construct: expressed in transfected cells; host or cells: HEK293T / 293 cells (inferred from the cellular MST method)
The experiment in a line: Cellular MST assay, GFP tagged FHIT truncation TR3 (C-terminal only). Type of experiment: binding. The method, then: as §1

Another experiment addresses T2, DCPS (Homo sapiens, UniProt Q96C86).
T2 construct: 6xHis (N); made in house; host or cells: E. coli BL21(DE3)
T2 sequence (Q96C86 1-337): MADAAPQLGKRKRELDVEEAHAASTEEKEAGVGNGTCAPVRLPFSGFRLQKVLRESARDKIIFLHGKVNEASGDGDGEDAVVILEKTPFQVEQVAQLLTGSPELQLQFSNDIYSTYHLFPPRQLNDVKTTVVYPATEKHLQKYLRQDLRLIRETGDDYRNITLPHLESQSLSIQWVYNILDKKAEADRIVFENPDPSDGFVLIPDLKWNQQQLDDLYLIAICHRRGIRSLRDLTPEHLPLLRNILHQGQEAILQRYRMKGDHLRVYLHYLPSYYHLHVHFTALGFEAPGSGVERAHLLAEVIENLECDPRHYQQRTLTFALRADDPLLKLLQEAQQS
The experiment in a line: MST assay, purified DCPS. Type of experiment: binding.

The target in another experiment is T3, GALT (Homo sapiens, UniProt P07902).
T3 construct: 6xHis (N); made in house; host or cells: E. coli BL21(DE3)
The experiment in a line: MST assay, purified GALT. It is filed as binding.

Experiment [1] has as its target T4, ENPP1 (Homo sapiens, UniProt P22413).
T4 sequence (P22413 1-925): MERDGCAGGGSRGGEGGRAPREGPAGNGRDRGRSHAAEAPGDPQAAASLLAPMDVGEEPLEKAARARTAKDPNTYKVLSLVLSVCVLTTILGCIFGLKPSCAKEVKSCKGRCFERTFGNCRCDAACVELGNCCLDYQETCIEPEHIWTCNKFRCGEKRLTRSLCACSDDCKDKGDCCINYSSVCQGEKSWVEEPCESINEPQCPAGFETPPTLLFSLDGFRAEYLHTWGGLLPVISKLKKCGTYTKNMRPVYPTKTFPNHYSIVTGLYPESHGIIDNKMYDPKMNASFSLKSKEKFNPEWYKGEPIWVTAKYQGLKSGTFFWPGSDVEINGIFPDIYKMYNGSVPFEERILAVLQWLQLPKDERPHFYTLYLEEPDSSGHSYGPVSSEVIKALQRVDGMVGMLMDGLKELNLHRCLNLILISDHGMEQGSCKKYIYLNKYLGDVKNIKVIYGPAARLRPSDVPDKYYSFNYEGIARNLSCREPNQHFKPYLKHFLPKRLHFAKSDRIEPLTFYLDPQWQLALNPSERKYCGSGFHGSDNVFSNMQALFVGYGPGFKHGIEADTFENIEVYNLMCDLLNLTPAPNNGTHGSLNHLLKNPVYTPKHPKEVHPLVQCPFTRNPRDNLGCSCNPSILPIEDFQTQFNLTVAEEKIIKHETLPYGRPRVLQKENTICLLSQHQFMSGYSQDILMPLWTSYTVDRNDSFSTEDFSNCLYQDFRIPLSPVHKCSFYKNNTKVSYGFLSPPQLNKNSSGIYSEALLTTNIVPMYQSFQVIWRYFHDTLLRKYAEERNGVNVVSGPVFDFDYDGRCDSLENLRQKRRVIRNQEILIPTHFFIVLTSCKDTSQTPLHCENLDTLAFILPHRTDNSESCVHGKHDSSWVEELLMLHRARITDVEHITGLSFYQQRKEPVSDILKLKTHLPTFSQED
The experiment in a line: MST assay, ENPP1. Type of experiment: binding.

The next experiment addresses T5, FHIT (Homo sapiens, UniProt P49789).
T5 construct: GST (N, cleaved yes); made in house; host or cells: E. coli BL21 (DE3)
The experiment in a line: FHIT hydrolase activity detection assay (Ap3A, ADP-Glo). Type of experiment: biochemical. Particulars: 5 nM FHIT, 500 nM Ap3A, ADP production by ADP-Glo. The method, then: 5 nM FHIT protein was mixed with series diluted compounds as indicated in assay buffer (20 mM Tris–HCl, 2 mM DTT, 5 mM MgCl2, pH7.5) in a final DMSO concentration of 1% in a total volume of 20 μL. The mixtures were incubated for 30 min at 25 °C, then 500 nM Ap3A was added. After incubation at 25 °C for 5 min, the production of ADP in the reaction system was detected by ADP-Glo reagent (V6930, Promega) according to the manufacturer’s protocol in 384-well. Luminescence was read by spark (TECAN), an integration time of 1 s per well. And the data were analyzed by GraphPad Prism 7.0.

Experiment [2] deals with T4, ENPP1. The experiment in a line: ENPP1 hydrolase activity detection assay (Ap3A, ADP-Glo). It is filed as biochemical. Particulars: ENPP1 4 ng/µl, 4 µM Ap3A.
Method: ENPP1 protein (4ng/µl) was mixed with series diluted compounds as indicated in assay buffer (50mM Tris-HCl, 2mM CaCl2, 2mM MgCl2, pH9.0) in a final DMSO concentration of 1% in a total volume of 20μL. The mixtures were incubated for 30min at 25°C, then 4µM Ap3A was added. After incubation at 25°C for 10min, ENPP1 should be inactivated at 85°C for 5min.
Then the production of ADP in the reaction system was detected by ADP-Glo reagent (V6930, Promega) according to the manufacturer’s protocol in 384-well. Luminescence was read by spark (TECAN), an integration time of 1 second per well. And the data were analyzed by

Sequence of FHIT truncation TR2 (P49789 whole entry, the tested form may be a part): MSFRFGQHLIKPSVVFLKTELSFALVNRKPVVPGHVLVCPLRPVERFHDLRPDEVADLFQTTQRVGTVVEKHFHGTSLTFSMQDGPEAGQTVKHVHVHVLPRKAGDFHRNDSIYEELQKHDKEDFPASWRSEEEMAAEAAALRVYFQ
T5 sequence (P49789 whole entry): as the sequence (P49789 whole entry, the tested form may be a part) above
T1 sequence (P49789 109-147 limits assumed): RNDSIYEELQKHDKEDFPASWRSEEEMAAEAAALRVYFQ
T3 sequence (P07902 whole entry): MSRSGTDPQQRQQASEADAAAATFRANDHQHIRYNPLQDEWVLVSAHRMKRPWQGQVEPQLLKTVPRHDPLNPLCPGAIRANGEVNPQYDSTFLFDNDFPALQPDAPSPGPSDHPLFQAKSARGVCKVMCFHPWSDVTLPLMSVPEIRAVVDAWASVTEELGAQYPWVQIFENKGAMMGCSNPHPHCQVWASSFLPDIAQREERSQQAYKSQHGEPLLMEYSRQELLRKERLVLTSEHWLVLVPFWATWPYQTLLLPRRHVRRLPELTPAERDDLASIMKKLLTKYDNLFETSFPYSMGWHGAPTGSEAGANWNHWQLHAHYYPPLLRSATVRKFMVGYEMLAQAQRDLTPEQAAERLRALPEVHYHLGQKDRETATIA
Sequence of FHIT truncation TR1 (P49789 2-109): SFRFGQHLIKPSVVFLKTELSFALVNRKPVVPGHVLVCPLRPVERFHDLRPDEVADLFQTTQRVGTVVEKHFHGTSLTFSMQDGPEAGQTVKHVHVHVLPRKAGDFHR

On to `Cc1c(S(=O)(=O)O)oc2c1C(=O)C(=O)c1c-2ccc2c1CCCC2(C)C` [STS, Sodium tanshinone IIA sulfonate], for which the Kd was 75.1 µM on FHIT truncation TR1; 58.2 µM at FHIT truncation TR2; “No Kd value was calculated” on FHIT truncation TR3; 9.31 ± 0.4 µM at DCPS; 12.9 ± 0.54 µM at GALT; 27.2 ± 1.96 µM at ENPP1 [1]. Moreover, the concentration for half-maximal inhibition (IC50) against FHIT was 340 ± 90 nM; on ENPP1 [2], 57.9 ± 15.1 µM.

These data come from publication PMC8190080, “Tanshinones induce tumor cell apoptosis via directly targeting FHIT” (Scientific Reports, 2021).
